Patent US20230000955A1, “THROMBOMODULIN FUNCTIONAL DOMAINS FOR USE IN PROMOTING OSTEOBLAST FUNCTIONS AND BONE HEALING” (BLUE BLOOD BIOTECH CORP., priority 2019, published 2023)

Tests used:
protein C = conditions: cited from earlier work
MC3T3-E1 cells = test: Proliferation assay (WST-1); format: cell-based; conditions: 1% FBS
Procedure: Proliferation assay. MG63 cells were treated with various concentrations of rTMD23 for 1, 4, 7 days. The medium was replaced every 2-3 days. At the end, the amount of living cells in each well was measured with crystal violet assay. The cells in each well were washed by PBS twice right before staining. Crystal violet (0.5%, 300 μL) were added in each well for 15 min, followed by ddH2O rinse at least five times. Acetic acid (10%, 300 μL) were added to dissolute the crystal violet. Then, taking 100 μL/well into a 96 well plate to get an OD595 measurement. A proliferation assay on MC3T3-E1 cells with various concentrations of a variant of TMD23 was performed. Briefly, MC3T3-E1 cells in 96-well plates were treated with rTMD23NA at various concentrations for 1, 3, 5 days. The number of living cells in each well was measured with WST-1 reagent. The cells in each well were washed by DMEM medium twice right before staining with 100 μL of 10% WST-1 in DMEM. The absorption at A450 nm-A690 nm of each well was measured.
Human osteoblast-like cell line MG63 and osteoblast cell line MC3T3-E1 were used in the cell proliferation assay. Briefly, different concentrations of rTMD23 and rTMD23NA, which is a variant form of rTMD23, were respectively added to MG63 or MC3T3-E1 cell culture containing 1% FBS. […] The OD595 of the cell lysate in 10% acetic acid was measured to obtain the relative cell count in each well.

mice = test: Calvarial bone defect healing with DCI treatment (μCT, H&E); format: in vivo, mouse; conditions: DCI alone
Procedure: FIGS. 8A-F show the effect of the TMD1 and TMD23 on calvarial bone healing. (8A) Cell migration, (8B) proliferation and (8C) mineralization of MG63 cells treated with the indicated dose of rTMD1. (8D) Calvarial bone healing of TM wild-type TM^wt/wt and TM domain 1 (TMD1)-deleted TM^LeD/LeD mice. (8E) μCT scanning and (8F) HE stain were used to evaluate the effect of vehicle, dichloroisocoumarin (DCI) and DCI plus rTMD23 or rTMD1 (100 μg/kg) on bone healing after a calvarial defect was created in mice. N=5 per group. Black bar=100 μm. White bar=1 mm. Dotted line indicates the section region. ***P<0.001.
Calvarial bone defect healing. Male mice were randomly assigned to designated groups. After anesthesia, a 4 mm-diameter defect on the calvaria was created and the wound was sutured. A combination of dichloroisocoumarin (DCI) (1 mM) or rTMD23 (0, 10, 100 μg/kg) and U0126 (20 μM) was subcutaneously injected once near the calvarial bone opening at week 1 after the surgery. Bone healing was monitored radiographically using μCT (Skyscan 1076, Antwerp, Belgium) and histologically at indicated time points (weeks 0 and 8) after the surgery. […] The quantification of the removed and regenerated bone volume (mm^3) performed by a 3D CT analyzer software (CTAN; Skyscan). […]

Molecule	protein C activation activity (protein C)	cell proliferation (absorbance, WST-1) (MC3T3-E1 cells)	regeneration of calvarial bone defect (μCT and H&E) (mice)
rTMD23NA: recombinant TMD23 variant with two substitutions Asn364Ala and Asn391Ala, SEQ ID NO: 3 (274aa)	little or no protein C activation activity	enhance cell proliferation	
O=c1oc(Cl)c(Cl)c2ccccc12 [DCI, dichloroisocoumarin]			reduced regeneration of calvarial bone defect
